# Results as given in patent US20230278972A1, “SUBSTITUTED HALOALKYL SULFONANILIDE HERBICIDES” (FMC Corporation, priority 2020, published 2023).
# Assays:
# Format in all cases: in vivo
# [1] = system: pigweed (Amaranthus retroflexus); assay: Test A preemergence, pigweed; settings: for Plant response rating, Pigweed: 125 g ai/ha, visual injury, 0 to 100 scale (0 no effect, 100 complete control), approx. 10 days; for Pigweed plant response rating: 500 g ai/ha, visual injury on 0 to 100 scale (0 no effect, 100 complete control), approximately 10 days
# Method in brief: (§1)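 Whole-plant herbicidal screen in pots of loam blended with sand. Sprays used a surfactant-containing, non-phytotoxic solvent vehicle. Timing was preemergence soil-directed at planting or postemergence at the one- to two-leaf stage (2–10 cm).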
# [2] = system: Ryegrass, Italian (Italian ryegrass, Lolium multiflorum); assay: Test A preemergence, Ryegrass, Italian; settings: Preemergence; for Plant response rating, Ryegrass, Italian: 125 g ai/ha, visual injury, 0 to 100 scale (0 no effect, 100 complete control), approx. 10 days; for Ryegrass, Italian plant response rating: 500 g ai/ha, visual injury on 0 to 100 scale (0 no effect, 100 complete control), approximately 10 days
# Method in brief: (§2)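 Postemergence ratings come from foliar sprays onto one- to two-leaf plants of 2 to 10 cm grown in loam/sand; preemergence ratings come from a directed spray onto the soil of newly seeded pots. Formulation was a surfactant-containing non-phytotoxic solvent blend.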
# kochia (Bassia scoparia) [3] = assay: Test A postemergence, kochia; settings: Postemergence, 0 to 100 scale (0 no effect, 100 complete control); for Plant response rating, Kochia: 125 g ai/ha; for Kochia plant response rating: 500 g ai/ha, visual injury vs untreated controls after approx. 10 days
# Method in brief: as §2
# [4] = system: barnyardgrass (Echinochloa crus-galli); assay: Test A preemergence, barnyardgrass; settings: Preemergence, 0 to 100 scale (0 no effect, 100 complete control)
# Method in brief: as §2
# [5] = system: wheat (Triticum aestivum); assay: Test A postemergence, wheat; settings: Postemergence, 0 to 100 scale (0 no effect, 100 complete control); for Plant response rating, Wheat: 125 g ai/ha; for Wheat plant response rating: 500 g ai/ha, visual injury vs untreated controls after approx. 10 days
# Method in brief: as §1
# [6] = system: blackgrass (Alopecurus myosuroides); assay: Test A postemergence, blackgrass; settings: Postemergence, 0 to 100 scale (0 no effect, 100 complete control); for Plant response rating, Blackgrass: 125 g ai/ha; for Blackgrass plant response rating: 500 g ai/ha, visual injury vs untreated controls after approx. 10 days
# Method in brief: as §2
# [7] = system: Foxtail, Giant (giant foxtail, Setaria faberi); assay: Test A preemergence, Foxtail, Giant; settings: Preemergence; for Plant response rating, Foxtail, Giant: 125 g ai/ha, visual injury, 0 to 100 scale (0 no effect, 100 complete control), approx. 10 days; for Foxtail, Giant plant response rating: 500 g ai/ha, visual injury on 0 to 100 scale (0 no effect, 100 complete control), approximately 10 days
# Method in brief: as §2
# corn (Zea mays) = assay: Test A postemergence, corn; settings: Postemergence, 0 to 100 scale (0 no effect, 100 complete control); for Plant response rating, Corn: 125 g ai/ha; for Corn plant response rating: 500 g ai/ha, visual injury vs untreated controls after approx. 10 days
# Method in brief: as §2
# kochia (Bassia scoparia) [8] = assay: Test A preemergence, kochia; settings: Preemergence; for Plant response rating, Kochia: 125 g ai/ha, visual injury, 0 to 100 scale (0 no effect, 100 complete control), approx. 10 days; for Kochia plant response rating: 500 g ai/ha, visual injury on 0 to 100 scale (0 no effect, 100 complete control), approximately 10 days
# Method in brief: as §2
# [9] = system: barnyardgrass (Echinochloa crus-galli); assay: Test A postemergence, barnyardgrass; settings: Postemergence, 0 to 100 scale (0 no effect, 100 complete control); for Plant response rating, Barnyardgrass: 125 g ai/ha; for Barnyardgrass plant response rating: 500 g ai/ha, visual injury vs untreated controls after approx. 10 days
# Method in brief: as §1
# [10] = system: ragweed (common ragweed, Ambrosia artemisiifolia); assay: Test A postemergence, ragweed; settings: Postemergence, 0 to 100 scale (0 no effect, 100 complete control); for Plant response rating, Ragweed: 125 g ai/ha; for Ragweed plant response rating: 500 g ai/ha, visual injury vs untreated controls after approx. 10 days
# Method in brief: as §2
# [11] = system: Foxtail, Giant (giant foxtail, Setaria faberi); assay: Test A postemergence, Foxtail, Giant; settings: Postemergence, 0 to 100 scale (0 no effect, 100 complete control); for Plant response rating, Foxtail, Giant: 125 g ai/ha; for Foxtail, Giant plant response rating: 500 g ai/ha, visual injury vs untreated controls after approx. 10 days
# Method in brief: as §2
# [12] = system: galium (catchweed bedstraw, Galium aparine); assay: Test A postemergence, galium; settings: Postemergence, 0 to 100 scale (0 no effect, 100 complete control); for Plant response rating, Galium: 125 g ai/ha; for Galium plant response rating: 500 g ai/ha, visual injury vs untreated controls after approx. 10 days
# Method in brief: as §1
# [13] = system: ragweed (common ragweed, Ambrosia artemisiifolia); assay: Test A preemergence, ragweed; settings: Preemergence; for Plant response rating, Ragweed: 125 g ai/ha, visual injury, 0 to 100 scale (0 no effect, 100 complete control), approx. 10 days; for Ragweed plant response rating: 500 g ai/ha, visual injury on 0 to 100 scale (0 no effect, 100 complete control), approximately 10 days
# Method in brief: as §2
# [14] = system: pigweed (Amaranthus retroflexus); assay: Test A postemergence, pigweed; settings: Postemergence, 0 to 100 scale (0 no effect, 100 complete control); for Plant response rating, Pigweed: 125 g ai/ha; for Pigweed plant response rating: 500 g ai/ha, visual injury vs untreated controls after approx. 10 days
# Method in brief: as §2
# [15] = system: Ryegrass, Italian (Italian ryegrass, Lolium multiflorum); assay: Test A postemergence, Ryegrass, Italian; settings: Postemergence, 0 to 100 scale (0 no effect, 100 complete control); for Plant response rating, Ryegrass, Italian: 125 g ai/ha; for Ryegrass, Italian plant response rating: 500 g ai/ha, visual injury vs untreated controls after approx. 10 days
# Method in brief: as §2
# [16] = 125 g ai/ha, visual injury, approx. 10 days
SMILES,"Plant response rating, Pigweed [1]",Pigweed plant response rating [1],"Plant response rating, Ryegrass, Italian [2]","Ryegrass, Italian plant response rating [2]","Plant response rating, Kochia (kochia (Bassia scoparia) [3])",Kochia plant response rating (kochia (Bassia scoparia) [3]),"Plant response rating, Barnyardgrass [4, 16]","Plant response rating, Barnyardgrass ([4]; 500 g ai/ha)","Plant response rating, Wheat [5]",Wheat plant response rating [5],"Plant response rating, Blackgrass [6]",Blackgrass plant response rating [6],"Plant response rating, Foxtail, Giant [7]","Foxtail, Giant plant response rating [7]","Plant response rating, Corn (corn (Zea mays))",Corn plant response rating (corn (Zea mays)),"Plant response rating, Kochia (kochia (Bassia scoparia) [8])",Kochia plant response rating (kochia (Bassia scoparia) [8]),"Plant response rating, Barnyardgrass [9]",Barnyardgrass plant response rating [9],further results
Cc1cc(F)c(C(=O)N2CC(C)OC(C)C2)cc1N(S(=O)(=O)C(F)(F)F)S(=O)(=O)C(F)(F)F (stereo not drawn) [Compound 235],30,80,50,90,10,30,0,0,20,60,0,20,10,10,0,30,30,50,0,60,"Plant response rating, Ragweed [10]: 60; Ragweed plant response rating [10]: 90; Plant response rating, Foxtail, Giant [11]: 20; Foxtail, Giant plant response rating [11]: 30; Plant response rating, Galium [12]: 70; Galium plant response rating [12]: 70; Plant response rating, Ragweed [13]: 40; Ragweed plant response rating [13]: 80; Plant response rating, Pigweed [14]: 30; Pigweed plant response rating [14]: 30; Plant response rating, Ryegrass, Italian [15]: 30; Ryegrass, Italian plant response rating [15]: 60"
Cc1cc(F)c(C(=O)N2CCC(C#N)CC2)cc1NS(=O)(=O)C(F)(F)F [Compound 236],60,90,20,60,30,50,0,0,0,0,0,20,30,60,0,20,20,70,50,60,"Plant response rating, Ragweed [10]: 40; Ragweed plant response rating [10]: 80; Plant response rating, Foxtail, Giant [11]: 20; Foxtail, Giant plant response rating [11]: 80; Plant response rating, Galium [12]: 40; Galium plant response rating [12]: 70; Plant response rating, Ragweed [13]: 50; Ragweed plant response rating [13]: 80; Plant response rating, Pigweed [14]: 40; Pigweed plant response rating [14]: 60; Plant response rating, Ryegrass, Italian [15]: 30; Ryegrass, Italian plant response rating [15]: 60"
Cc1cc(F)c(C(=O)N2CCOCC2)cc1N(S(=O)(=O)C(F)(F)F)S(=O)(=O)C(F)(F)F [Compound 237],80,100,20,50,70,90,40,30,0,0,0,0,20,40,0,20,90,90,20,40,"Plant response rating, Ragweed [10]: 50; Ragweed plant response rating [10]: 80; Plant response rating, Foxtail, Giant [11]: 20; Foxtail, Giant plant response rating [11]: 40; Plant response rating, Galium [12]: 0; Galium plant response rating [12]: 50; Plant response rating, Ragweed [13]: 30; Ragweed plant response rating [13]: 80; Plant response rating, Pigweed [14]: 30; Pigweed plant response rating [14]: 60; Plant response rating, Ryegrass, Italian [15]: 40; Ryegrass, Italian plant response rating [15]: 40"
